# Test results as given in US9107940B2, “Compositions and methods for treating and preventing skeletal muscle deficiencies” (The Regents of the University of Michigan, priority 2007, dated 2015).
# What was measured:
# [1] = tested on: mdx lumbrical (LMB) muscles; experiment: Isometric contraction protocol (20 contractions) inducing force deficit in isolated lumbrical muscles in vitro; parameters: species or system mouse
# From the text: Specific-pathogen-free male mdx mice (C57BL/10ScSn-mdx stock #001801) 2-3 months of age and wild type (WT) C57BL/10 mice 2-5 months of age were obtained from the Jackson Laboratory (Bar Harbor, Me.). Mice were housed in a specific-pathogen-free barrier facility. All experimental procedures were in accordance with the Guide for the Care and Use of Laboratory Animals [DHHS Publication No. 85-23 (NIH), Revised 1985, Office of Science and Health Reports, Bethesda, Md. 20892].
# Mice were anesthetized with an intraperitoneal injection of Avertin (tribromoethanol 400 mg/kg). Supplemental doses of Avertin were administered as required to keep the mouse unresponsive to tactile stimuli. The front paws of the mouse were severed and the LMB muscles dissected free from the second digit. The LMB muscles were selected for their extremely small size that ensured all fibres were accessible to externally applied compounds. Based on physical dimensions, LMB muscle mass was estimated to be approximately 0.7 mg. Dissections were performed in a chilled bathing solution, composition in mM: 137 NaCl, 11.9 NaHCO3, 5.0 KCl, 1.8 CaCl2, 0.5 MgCl2, 0.4 NaH2PO4. The isolated LMB muscle was mounted horizontally in a custom-fabricated chamber with the distal tendon attached to a force transducer (Aurora Scientific, Inc., modified Model 400A) and the proximal tendon attached to a servomotor (Aurora Scientific, Inc., Model 318B) by ties composed of 10-0 monofilament nylon suture. Bath temperature was maintained at 25° C. and the chamber was perfused continuously with Tyrode solution (composition in mM: 121 NaCl, 24 NaHCO3, 5.0 KCl, 1.8 CaCl2, 0.5 MgCl2, 0.4 NaH2PO4) maintained at pH 7.3 by bubbling with a 95%/5% O2/CO2 mixture.
# Muscles were stimulated electrically by current passed between two platinum electrodes. […] Optimum length (Lo) of the muscle was determined by adjusting its length until maximum twitch force was attained. […]
# Data are presented as a mean value±SE. […] When ANOVA was used and significance detected, the Student-Newman-Keuls post hoc comparison was used to assess pairwise differences.
# [2] = tested on: WT muscles; details: P188 1 mM or streptomycin 200 μM
# Protocol: LMB muscles from WT mice, termed WT muscles, were divided into two groups. One group was exposed to normal Tyrode solution and the other group to a calcium-free Tyrode solution. […] For all treatments, muscles were allowed to incubate in the chamber for 15 minutes prior to commencement of the contraction protocol. […] For calcium-free experiments, CaCl2 was omitted from the Tyrode solution and MgCl2 was increased to 2.3 mM to maintain the concentration of divalent ions.
smiles,measurement,setting,value
[H]/N=C(/N)N[C@H]1[C@H](O)[C@@H](O)[C@H](O[C@@H]2O[C@@H](C)[C@](O)(C=O)[C@H]2O[C@@H]2O[C@@H](CO)[C@H](O)[C@@H](O)[C@@H]2NC)[C@@H](N/C(N)=N\[H])[C@@H]1O [streptomycin],influence on absolute Po,"[1]; mdx LMB muscles, P188 1 mM, streptomycin 200 μM",did not influence
same,force generated at the end of the contraction protocol (post-protocol normalized Po),"[1]; mdx LMB muscles, P188 1 mM, streptomycin 200 μM in Tyrode, 15 min incubation, untreated mdx 69% of Po",84 % of Po
same,contraction-induced force deficit (effect in words),[1]; whole mdx skeletal muscle,equally effective in reducing the contraction-induced force deficit
same,toxicity to the muscle,[2],not toxic
